Test system: 935938-334-R-J1-PDC complex spheroid viability
Experiment: Anticancer human tumor 935938-334-R-J1-PDC patient-derived small intestine adenocarcinoma cell line growth inhibition [POLQ]
Conditions: for IC50: curve of first compound; for viability, T/C: stronger effect = lower value; active = viability on the fitted dose curve at most 10% of control; inactive = the rest
Outline: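 Three-cell-type spheroids modelling solid tumor plus stroma served as the readout system; POL inhibitors were tested individually and in combination, concentration ranges set by clinical Cmax where known.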

[1] = second compound 0.0316 µM, first compound 0.0316 µM
[2] = second compound 0.0316 µM, first compound 0.1 µM
[3] = second compound 0.0316 µM, first compound 0.316 µM
[4] = second compound 0.0316 µM, first compound 1 µM
[5] = second compound 0.0316 µM, first compound 3.16 µM
[6] = second compound 0.0316 µM, first compound 10 µM
[7] = second compound 0.1 µM, first compound 0.0316 µM
[8] = second compound 0.1 µM, first compound 0.1 µM
[9] = second compound 0.1 µM, first compound 0.316 µM
[10] = second compound 0.1 µM, first compound 1 µM
[11] = second compound 0.1 µM, first compound 3.16 µM
[12] = second compound 0.1 µM, first compound 10 µM
[13] = second compound 0.316 µM, first compound 0.0316 µM
[14] = second compound 0.316 µM, first compound 0.1 µM
[15] = second compound 0.316 µM, first compound 0.316 µM
[16] = second compound 0.316 µM, first compound 1 µM
[17] = second compound 0.316 µM, first compound 3.16 µM
[18] = second compound 0.316 µM, first compound 10 µM
[19] = second compound 1 µM, first compound 0.0316 µM
[20] = second compound 1 µM, first compound 0.1 µM
[21] = second compound 1 µM, first compound 0.316 µM
[22] = second compound 1 µM, first compound 1 µM
[23] = second compound 1 µM, first compound 3.16 µM
[24] = second compound 1 µM, first compound 10 µM
[25] = second compound 3.16 µM, first compound 0.0316 µM
[26] = second compound 3.16 µM, first compound 0.1 µM
[27] = second compound 3.16 µM, first compound 0.316 µM
[28] = second compound 3.16 µM, first compound 1 µM
[29] = second compound 3.16 µM, first compound 3.16 µM
[30] = second compound 3.16 µM, first compound 10 µM
[31] = second compound 10 µM, first compound 0.0316 µM
[32] = second compound 10 µM, first compound 0.1 µM
[33] = second compound 10 µM, first compound 0.316 µM
[34] = second compound 10 µM, first compound 1 µM
[35] = second compound 10 µM, first compound 3.16 µM
[36] = second compound 10 µM, first compound 10 µM
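Also: spheroids exposed to drugs for seven days before viability read.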
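For viability, T/C in this document: 100% = DMSO vehicle control wells.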

C=CC(=O)N1CCN(c2nc(=O)n(-c3c(C)ccnc3C(C)C)c3nc(-c4c(O)cccc4F)c(F)cc23)C(C)C1 (centres undefined) + COC1C(OC(N)=O)C(O)C(Oc2ccc3c(O)c(NC(=O)c4ccc(O)c(CC=C(C)C)c4)c(=O)oc3c2C)OC1(C)C
> 10 µM: IC50 (second compound 0.0316 µM) | IC50 (second compound 0.1 µM) | IC50 (second compound 0.316 µM) | IC50 (second compound 1 µM) | IC50 (second compound 3.16 µM) | IC50 (second compound 10 µM)
inactive: viability, T/C [1] 107% | viability, T/C [2] 88.4% | viability, T/C [3] 107% | viability, T/C [4] 82.9% | viability, T/C [5] 131% | viability, T/C [6] 111% | viability, T/C [7] 85.3% | viability, T/C [8] 110% | viability, T/C [9] 90.8% | viability, T/C [10] 99.3% | viability, T/C [11] 104% | viability, T/C [12] 126% | viability, T/C [13] 129% | viability, T/C [14] 87.2% | viability, T/C [15] 103% | viability, T/C [16] 80.7% | viability, T/C [17] 85.5% | viability, T/C [18] 115% | viability, T/C [19] 101% | viability, T/C [20] 86.4% | viability, T/C [21] 101% | viability, T/C [22] 107% | viability, T/C [23] 102% | viability, T/C [24] 113% | viability, T/C [25] 117% | viability, T/C [26] 99.7% | viability, T/C [27] 93.4% | viability, T/C [28] 96.9% | viability, T/C [29] 102% | viability, T/C [30] 111% | viability, T/C [31] 102% | viability, T/C [32] 81.3% | viability, T/C [33] 106% | viability, T/C [34] 94.7% | viability, T/C [35] 103% | viability, T/C [36] 118%

C#Cc1c(F)ccc2cc(O)cc(-c3ncc4c(N5CC6CCC(C5)N6)nc(OCC56CCCN5CC(F)C6)nc4c3F)c12 (centres undefined) + COC1C(OC(N)=O)C(O)C(Oc2ccc3c(O)c(NC(=O)c4ccc(O)c(CC=C(C)C)c4)c(=O)oc3c2C)OC1(C)C
2.62 µM: IC50 (second compound 1 µM)
6.23 µM: IC50 (second compound 3.16 µM)
5.68 µM: IC50 (second compound 0.1 µM)
2.92 µM: IC50 (second compound 10 µM)
1.84 µM: IC50 (second compound 0.316 µM)
0.848 µM: IC50 (second compound 0.0316 µM)
inactive: viability, T/C [1] 84.6% | viability, T/C [2] 100% | viability, T/C [3] 70.6% | viability, T/C [4] 47.5% | viability, T/C [5] 47.1% | viability, T/C [6] 29.9% | viability, T/C [7] 76.3% | viability, T/C [8] 93.5% | viability, T/C [9] 111% | viability, T/C [10] 73.1% | viability, T/C [11] 61.5% | viability, T/C [12] 41% | viability, T/C [13] 106% | viability, T/C [14] 79.6% | viability, T/C [15] 121% | viability, T/C [16] 52% | viability, T/C [17] 62.6% | viability, T/C [18] 33.8% | viability, T/C [19] 92.8% | viability, T/C [20] 81.2% | viability, T/C [21] 75.8% | viability, T/C [22] 65% | viability, T/C [23] 42% | viability, T/C [24] 44.1% | viability, T/C [25] 96.7% | viability, T/C [26] 72% | viability, T/C [27] 75.9% | viability, T/C [28] 86.4% | viability, T/C [29] 43.1% | viability, T/C [30] 48.6% | viability, T/C [31] 65.6% | viability, T/C [32] 97.9% | viability, T/C [33] 77.4% | viability, T/C [34] 57.2% | viability, T/C [35] 54.8% | viability, T/C [36] 43.9%
